Patent US10683269B2 (MISSION THERAPEUTICS LIMITED, priority 2016, dated 2020)

Target: T1, USP7 (Homo sapiens, UniProt Q93009)
T1 construct: The USP7 construct was PCR amplified and cloned into a pFLAG-CMV-6a vector (Sigma-Aldrich) with an N-terminal FLAG tag; made in house; host or cells: HEK293T
Experiment: USP7 biochemical IC50 assay (fluorescence polarisation, TAMRA labelled peptide linked to ubiquitin via an iso-peptide bond)
Conditions: 30 min pre-incubation of enzyme and compound, read after 2 hr incubation at room temperature, read-out: IC50 range
Method in brief: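 Fluorescence polarisation at 540 nm excitation/590 nm emission, read immediately and after 2 hr at room temperature, following addition of 50 nM TAMRA-labelled iso-peptide ubiquitin substrate.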

T1 sequence (Q93009 whole entry): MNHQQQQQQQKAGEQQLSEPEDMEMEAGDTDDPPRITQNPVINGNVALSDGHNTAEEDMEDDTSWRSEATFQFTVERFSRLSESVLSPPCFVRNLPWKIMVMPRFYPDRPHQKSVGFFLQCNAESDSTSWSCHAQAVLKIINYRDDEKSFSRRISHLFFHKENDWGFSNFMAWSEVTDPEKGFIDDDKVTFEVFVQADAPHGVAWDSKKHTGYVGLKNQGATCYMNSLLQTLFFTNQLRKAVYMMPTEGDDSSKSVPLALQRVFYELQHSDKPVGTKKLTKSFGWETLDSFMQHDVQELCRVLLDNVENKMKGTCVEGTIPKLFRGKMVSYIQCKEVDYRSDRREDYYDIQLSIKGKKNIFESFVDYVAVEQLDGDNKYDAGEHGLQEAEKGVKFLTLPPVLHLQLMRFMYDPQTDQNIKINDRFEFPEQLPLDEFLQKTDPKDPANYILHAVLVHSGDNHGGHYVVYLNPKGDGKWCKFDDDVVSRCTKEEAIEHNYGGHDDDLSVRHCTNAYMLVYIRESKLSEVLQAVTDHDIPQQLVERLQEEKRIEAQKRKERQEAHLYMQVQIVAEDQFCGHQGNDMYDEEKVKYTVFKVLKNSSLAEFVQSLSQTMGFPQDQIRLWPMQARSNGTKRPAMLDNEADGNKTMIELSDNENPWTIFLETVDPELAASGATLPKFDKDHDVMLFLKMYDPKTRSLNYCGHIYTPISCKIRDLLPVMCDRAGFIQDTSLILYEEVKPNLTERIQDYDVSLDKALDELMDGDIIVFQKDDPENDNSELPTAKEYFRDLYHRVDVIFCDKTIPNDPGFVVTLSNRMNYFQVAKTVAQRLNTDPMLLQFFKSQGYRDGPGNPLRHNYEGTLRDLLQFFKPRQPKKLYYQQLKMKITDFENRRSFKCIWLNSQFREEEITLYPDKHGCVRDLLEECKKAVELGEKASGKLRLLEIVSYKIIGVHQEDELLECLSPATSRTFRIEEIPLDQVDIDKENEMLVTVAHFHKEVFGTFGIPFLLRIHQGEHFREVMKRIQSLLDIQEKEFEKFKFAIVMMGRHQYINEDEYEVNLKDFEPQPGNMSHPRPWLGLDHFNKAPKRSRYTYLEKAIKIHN

Compound	IC50
CC(=O)Nc1cc(-c2ccc(F)cc2)c2c(n1)CN(C#N)C2 [Example 249, N-(6-cyano-4-(4-fluorophenyl)-6,7-dihydro-5H-pyrrolo[3,4-b]pyridin-2-yl)acetamide]	1000 to 10000 nM
COCCc1cc2c(c(-c3ccc(C#N)cc3)c1)CN(C#N)C2 [Example 254, 4-(4-cyanophenyl)-6-(2-methoxyethyl)isoindoline-2-carbonitrile]	1000 to 10000 nM
COCCc1cc2c(c(-c3ccccc3C(N)=O)c1)CN(C#N)C2 [Example 255, 2-(2-cyano-6-(2-methoxyethyl)isoindolin-4-yl)benzamide]	1000 to 10000 nM
N#Cc1ccc(-c2cc(CCc3cccnc3)cc3c2CN(C#N)C3)cc1 [Example 256, 4-(4-cyanophenyl)-6-(2-(pyridin-3-yl)ethyl)isoindoline-2-carbonitrile]	1000 to 10000 nM
CC(=O)N1CCC(CCc2cc3c(c(-c4ccc(C#N)cc4)c2)CN(C#N)C3)CC1 [Example 257, 6-(2-(1-acetylpiperidin-4-yl)ethyl)-4-(4-cyanophenyl)isoindoline-2-carbonitrile]	1000 to 10000 nM
N#Cc1ccc(-c2c(F)ccc3c2CN(C#N)C3)c(C(N)=O)c1 [Example 260, 5-cyano-2-(2-cyano-5-fluoroisoindolin-4-yl)benzamide]	1000 to 10000 nM
N#Cc1ccc(-c2ccc(F)c3c2CN(C#N)C3)c(C(N)=O)c1 [Example 261, 5-cyano-2-(2-cyano-7-fluoroisoindolin-4-yl)benzamide]	1000 to 10000 nM
CN1CC(c2cc3c(c(-c4ccccc4)c2)CN(C#N)C3)CCC1=O (centres unmarked) [Example 262, 6-(1-methyl-6-oxopiperidin-3-yl)-4-phenylisoindoline-2-carbonitrile]	1000 to 10000 nM
Cn1cc(-c2cc3c(c(-c4ccccc4)c2)CN(C#N)C3)ccc1=O [Example 263, 6-(1-methyl-6-oxo-1,6-dihydropyridin-3-yl)-4-phenylisoindoline-2-carbonitrile]	1000 to 10000 nM
N#Cc1ccc(-c2cc(NC(=O)C3CCOCC3)cc3c2CN(C#N)C3)cc1 [Example 264, N-(2-cyano-7-(4-cyanophenyl)isoindolin-5-yl)tetrahydro-2H-pyran-4-carboxamide]	1000 to 10000 nM
CN1CC(C(=O)Nc2cc3c(c(-c4ccc(C#N)cc4)c2)CN(C#N)C3)CC1=O (centres unmarked) [Example 265, N-(2-cyano-7-(4-cyanophenyl)isoindolin-5-yl)-1-methyl-5-oxopyrrolidine-3-carboxamide]	1000 to 10000 nM
CN1CC(C(=O)Nc2cc3c(c(-c4ccc(C#N)cc4)c2)CN(C#N)C3)CCC1=O (centres unmarked) [Example 266, N-(2-cyano-7-(4-cyanophenyl)isoindolin-5-yl)-1-methyl-6-oxopiperidine-3-carboxamide]	1000 to 10000 nM
N#CN1Cc2cccc(N3C(=O)CCCC3=O)c2C1 [Example 268, 4-(2,6-dioxopiperidin-1-yl)isoindoline-2-carbonitrile]	10000 to 30000 nM
CNc1cc2c(c(-c3ccc(C#N)cc3)c1)CN(C#N)C2 [Example 269, 4-(4-cyanophenyl)-6-(methylamino)isoindoline-2-carbonitrile]	1000 to 10000 nM
N#Cc1ccc(-c2cc(NCCO)cc3c2CN(C#N)C3)cc1 [Example 271, 4-(4-cyanophenyl)-6-((2-hydroxyethyl)amino)isoindoline-2-carbonitrile]	1000 to 10000 nM
CC(C)Nc1cc2c(c(-c3ccc(C#N)cc3)c1)CN(C#N)C2 [Example 272, 4-(4-cyanophenyl)-6-(isopropylamino)isoindoline-2-carbonitrile]	1000 to 10000 nM
N#Cc1ccc(-c2cc(NC3CCS(=O)(=O)CC3)cc3c2CN(C#N)C3)cc1 [Example 273, 4-(4-cyanophenyl)-6-((1,1-dioxidotetrahydro-2H-thiopyran-4-yl)amino)isoindoline-2-carbonitrile]	1000 to 10000 nM
N#Cc1ccc(-c2cc(NC3CCOCC3)cc3c2CN(C#N)C3)cc1 [Example 274, 4-(4-cyanophenyl)-6-((tetrahydro-2H-pyran-4-yl)amino)isoindoline-2-carbonitrile]	1000 to 10000 nM
Cn1nccc1CNc1cc2c(c(-c3ccc(C#N)cc3)c1)CN(C#N)C2 [Example 276, 4-(4-cyanophenyl)-6-(((1-methyl-1H-pyrazol-5-yl)methyl)amino)isoindoline-2-carbonitrile]	1000 to 10000 nM
CCNc1cc2c(c(-c3ccc(C#N)cc3)c1)CN(C#N)C2 [Example 277, 4-(4-cyanophenyl)-6-(ethylamino)isoindoline-2-carbonitrile]	1000 to 10000 nM
N#Cc1ccc(-c2cc(N3CCS(=O)(=O)CC3)cc3c2CN(C#N)C3)cc1 [Example 278, 4-(4-cyanophenyl)-6-(1,1-dioxidothiomorpholino)isoindoline-2-carbonitrile]	1000 to 10000 nM
CCN(CC)c1cc2c(c(-c3ccc(C#N)cc3)c1)CN(C#N)C2 [Example 279, 4-(4-Cyanophenyl)-6-(diethylamino)isoindoline-2-carbonitrile]	1000 to 10000 nM
N#Cc1ccc(-c2cc(NCC(O)CO)cc3c2CN(C#N)C3)cc1 (centres unmarked) [Example 280, 4-(4-Cyanophenyl)-6-((2,3-dihydroxypropyl)amino)isoindoline-2-carbonitrile]	1000 to 10000 nM
N#Cc1ccc(-c2cc(NCC3CCOCC3)cc3c2CN(C#N)C3)c(C(N)=O)c1 [Example 281, 5-Cyano-2-(2-cyano-6-(((tetrahydro-2H-pyran-4-yl)methyl)amino)isoindolin-4-yl)benzamide]	1000 to 10000 nM
N#CN1Cc2cc(NC[C@H](O)CO)cc(-c3ccc(F)cc3)c2C1 [Example 282, (S)-6((2,3-dihydroxypropyl)amino)-4-(4-fluorophenyl)isoindoline-2-carbonitrile]	1000 to 10000 nM
COC(CO)CNc1cc2c(c(-c3ccc(C#N)cc3)c1)CN(C#N)C2 (centres unmarked) [Example 284, 4-(4-Cyanophenyl)-6-((3-hydroxy-2-methoxypropyl)amino)isoindoline-2-carbonitrile]	1000 to 10000 nM
CN(C)c1cc2c(c(-c3ccc(C#N)cc3C(N)=O)c1)CN(C#N)C2 [Example 285, 5-Cyano-2-(2-cyano-6-(dimethylamino)isoindolin-4-yl)benzamide]	1000 to 10000 nM
CC(O)CNc1cc2c(c(-c3ccc(C#N)cc3)c1)CN(C#N)C2 (centres unmarked) [Example 286, 4-(4-Cyanophenyl)-6-((2-hydroxypropyl)amino)isoindoline-2-carbonitrile]	1000 to 10000 nM
CC(C)(O)CNc1cc2c(c(-c3ccc(C#N)cc3)c1)CN(C#N)C2 [Example 287, 4-(4-cyanophenyl)-6-((2-hydroxy-2-methylpropyl)amino)iso-indoline-2-carbonitrile]	1000 to 10000 nM

Next, values leading:

IC50	Compound
1000 to 10000 nM	CS(=O)(=O)Nc1cc2c(c(-c3ccccc3C#N)c1)CN(C#N)C2 [Example 242, N-(2-cyano-7-(2-cyanophenyl)isoindolin-5-yl)methanesulfonamide]
1000 to 10000 nM	CS(=O)(=O)Nc1cc2c(c(-c3ccc(C#N)cc3C#N)c1)CN(C#N)C2 [Example 243, N-(2-cyano-7-(2,4-dicyanophenyl)isoindolin-5-yl)methanesulfonamide]
1000 to 10000 nM	CS(=O)(=O)Nc1cc2c(c(-c3ccc(C#N)cc3)c1)CN(C#N)C2 [Example 244, N-(2-cyano-7-(4-cyanophenyl)isoindolin-5-yl)methanesulfonamide]
1000 to 10000 nM	COc1ccc(C#N)c(-c2cc(NS(C)(=O)=O)cc3c2CN(C#N)C3)c1 [Example 245, N-(2-cyano-7-(2-cyano-5-methoxyphenyl)isoindolin-5-yl)methanesulfonamide]
1000 to 10000 nM	N#CN1Cc2nc(NCC3CCOCC3)cc(-c3ccc(F)cc3)c2C1 [Example 246, 4-(4-fluorophenyl)-2-(((tetrahydro-2H-pyran-4-yl)methyl)amino)-5,7-dihydro-6H-pyrrolo[3,4-b]pyridine-6-carbonitrile]
1000 to 10000 nM	N#CN1Cc2nc(NCc3ccccn3)cc(-c3ccc(F)cc3)c2C1 [Example 247, 4-(4-fluorophenyl)-2-((pyridin-2-ylmethyl)amino)-5,7-dihydro-6H-pyrrolo[3,4-b]pyridine-6-carbonitrile]
< 1000 nM	Cn1nccc1CNc1cc(-c2ccc(F)cc2)c2c(n1)CN(C#N)C2 [Example 248, 4-(4-fluorophenyl)-2-(((1-methyl-1H-pyrazol-5-yl)methyl)amino)-5,7-dihydro-6H-pyrrolo[3,4-b]pyridine-6-carbonitrile]
1000 to 10000 nM	N#CN1Cc2nc(NCC(O)CO)cc(-c3ccc(F)cc3)c2C1 (centres unmarked) [Example 250, 2-((2,3-dihydroxypropyl)amino)-4-(4-fluorophenyl)-5,7-dihydro-6H-pyrrolo[3,4-b]pyridine-6-carbonitrile]
1000 to 10000 nM	CN(C)C(=O)Cc1cc2c(c(-c3ccccc3)c1)CN(C#N)C2 [Example 251, 2-(2-cyano-7-phenylisoindolin-5-yl)-N,N-dimethylacetamide]
1000 to 10000 nM	CS(=O)(=O)CCc1cc2c(c(-c3ccccc3)c1)CN(C#N)C2 [Example 252, 6-(2-(methylsulfonyl)ethyl)-4-phenylisoindoline-2-carbonitrile]
1000 to 10000 nM	CS(=O)(=O)Cc1cc2c(c(-c3ccccc3)c1)CN(C#N)C2 [Example 253, 6-((methylsulfonyl)methyl)-4-phenylisoindoline-2-carbonitrile]
< 1000 nM	CN(C)CC(=O)Nc1cc2c(c(-c3ccc(C#N)cc3)c1)CN(C#N)C2 [Example 267, N-(2-cyano-7-(4-cyanophenyl)isoindolin-5-yl)-2-(dimethylamino)acetamide]
< 1000 nM	CN(C)c1cc2c(c(-c3ccc(C#N)cc3)c1)CN(C#N)C2 [Example 270, 4-(4-cyanophenyl)-6-(dimethylamino)isoindoline-2-carbonitrile]
< 1000 nM	N#Cc1ccc(-c2cc(NCC3CCOCC3)cc3c2CN(C#N)C3)cc1 [Example 275, 4-(4-cyanophenyl)-6-(((tetrahydro-2H-pyran-4-yl)methyl)amino)isoindoline-2-carbonitrile]
< 1000 nM	N#Cc1ccccc1-c1cc(NC[C@H](O)CO)cc2c1CN(C#N)C2 [Example 283, (S)-4-(2-cyanophenyl)-6-((2,3-dihydroxypropyl)amino)isoindoline-2-carbonitrile]
